Laboratory results: patent publication US4985416A, “Platinum complexes of azodiazonium dyes as anti-tumor agents” (priority 1989, dated 1991)
Read-outs that look alike come from different tables or passages of the source.

Tests used:
FSaII fibrosarcoma cells [1] = assay: Enhancement of killing effect of heat treatment (hyperthermia) in vivo: growth delay; set-up: species or system mice
Protocol: FSaII fibrosarcoma cells (2×10^6 FSaII cells) were implanted in the legs of mice: the drug was administered i.p. when the tumor had grown to approximately 50 mm^3 in volume, using 0.9% phosphate buffered saline as carrier, as described above in the doses shown in Table 3 below. Fifteen minutes later radiation was delivered locally to the tumor bearing limb as a single dose of 10, 20, or 30 gray as indicated in the table. No anesthetic was used. The growth of each tumor was measured thrice weekly until it reached a volume of 500 mm^3. Each treatment group had 7 animals and the procedure was repeated 3 times. Tumor volume was calculated as a hemiellipsoid, and in the untreated control animals, tumors reached the specified volume in 14.0 days. The delay is reported in terms of the mean number of additional days beyond the control required for the tumors in each group to reach the specified volume. The results were as follows:
The complex was also found to be effective in enhancing the killing effect of heat treatment (hyperthermia) in vivo. The procedure described in the preceding paragraph was carried out except that there was substituted for the single radiation dose a heat treatment by immersion of the tumor-bearing limb in a water bath at 44° C. for 30 minutes to raise the tumor temperature to 43° C. The means number of days delay (n=14) was as follows: […]

Lewis Lung = assay: Tumor growth delay in vivo, Lewis Lung solid tumor; set-up: species or system mice (C57BL/6J); conditions: day 7, to reach 500 mm^3
Protocol: (§1) Anti-tumor activity of the complex prepared as described above was determined in vivo in mice by comparative tests against Fast Black dye alone and against Cis-diamminedichloroplatinum (CDDP) using the following procedure Two different solid tumor cell lines were employed, Lewis Lung and FSaII, 2×10^6 tumor cells being implanted i.m. into the legs of male C57BL/6J and C3H/He mice 8 to 10 weeks of age, respectively. The drugs were administered i.p. on day 7 after tumor implantation (when tumors were about 100 mm^3 in volume), in solution (0.5%) in 0.9% phosphate-buffered saline as carrier. Tumor growth delay is reported in Table I below as the difference in number of days for the treated tumors to reach 500 mm^3 in volume and the number of days required for untreated control tumors to reach the same volume (n=14 in each group). Tumor volume was calculated as a hemiellipsoid. In the control animals, tumors reached the specified volume in 12-14 days.

Lewis Lung carcinoma = assay: Anti-metastatic activity: lung metastases from Lewis Lung carcinoma; type: in vivo, mice; conditions: day 7, lungs day 20, control 14
Protocol: as §1
Anti-metastatic activity was determined by implanting Lewis Lung carcinoma cells in the legs of mice as described above, administering drugs in the doses indicated in Table II below, i.p. on day 7 after implantation and removing the lungs on day 20 followed by counting metastases. Control mice received no drug (n=14 in each group).

FSaII = assay: Tumor growth delay in vivo, FSaII solid tumor; set-up: species or system mice (C3H/He); conditions: day 7, to reach 500 mm^3
Protocol: as §1

FSaII fibrosarcoma cells [2] = type: in vivo, mice; conditions: 300 mg/kg i.p.
Protocol: Fifteen minutes later radiation was delivered locally to the tumor bearing limb as a single dose of 10, 20, or 30 gray as indicated in the table. No anesthetic was used. The growth of each tumor was measured thrice weekly until it reached a volume of 500 mm^3. […] The delay is reported in terms of the mean number of additional days beyond the control required for the tumors in each group to reach the specified volume.

carcinoma cells = conditions: in words; Bernal et al.; cited from earlier work
EMT6 cells = assay: Entry of platinum into EMT6 cells; type: cell-based; conditions: in words

## N.N.[Cl][Pt][Cl] [CDDP, Cis-diamminedichloroplatinum (II)]
FSaII fibrosarcoma cells [1]; 5 mg/kg, heat 30 min at 43° C., heat alone 1.4
  Mean No. Days Delay: 5.9 days
FSaII fibrosarcoma cells [1]; 5 mg/kg, no heat
  Mean No. Days Delay: 4.4 days
Lewis Lung; 5 mg/kg i.p.
  Mean No. Days Delay (Lewis Lung): < 1 days
Lewis Lung; 10 mg/kg i.p.
  Mean No. Days Delay (Lewis Lung): < 1 days
Lewis Lung carcinoma; 10 mg/kg i.p.
  Mean No. of Metastases per Animal: 10.7 Metastases per Animal
FSaII; 5 mg/kg i.p.
  Mean No. Days Delay (FSaII): 4.4 days
FSaII; 10 mg/kg i.p.
  Mean No. Days Delay (FSaII): 8.0 days

## COc1cc([N+]#N)c(OC)cc1N=Nc1ccc([N+](=O)[O-])cc1 [Fast Black]
FSaII fibrosarcoma cells [1]; 300 mg/kg, heat 30 min at 43° C., heat alone 1.4
  Mean No. Days Delay: 4.4 days
FSaII fibrosarcoma cells [1]; 300 mg/kg, no heat
  Mean No. Days Delay: 2.7 days
Lewis Lung; 250 mg/kg i.p.
  Mean No. Days Delay (Lewis Lung): 2.0 days
Lewis Lung carcinoma; 50 mg/kg i.p.
  Mean No. of Metastases per Animal: 13.3 Metastases per Animal
Lewis Lung carcinoma; 100 mg/kg i.p.
  Mean No. of Metastases per Animal: 12.3 Metastases per Animal
Lewis Lung carcinoma; 250 mg/kg i.p.
  Mean No. of Metastases per Animal: 11.0 Metastases per Animal
FSaII fibrosarcoma cells [2]; 0 Gray
  Mean No. Days Delay: 3.0 days
FSaII fibrosarcoma cells [2]; 10 Gray 15 min later, radiation alone 1.8
  Mean No. Days Delay: 7.0 days
FSaII fibrosarcoma cells [2]; 20 Gray 15 min later, radiation alone 6.3
  Mean No. Days Delay: 12.6 days
FSaII fibrosarcoma cells [2]; 30 Gray 15 min later, radiation alone 8.8
  Mean No. Days Delay: 16.2 days
FSaII; 250 mg/kg i.p.
  Mean No. Days Delay (FSaII): 2.7 days

## COC(=O)c1ccccc1-c1c2ccc(=N)cc-2oc2cc(N)ccc12 [Rhodamine 123]
Carcinoma cells
  selective toxicity toward carcinoma cells: selectively toxic toward carcinoma cells

## [Cl][Pt-2]([Cl])([Cl])[Cl].[K+].[K+] [potassium tetracloroplatinate, potassium tetrachloroplatinate]
EMT6 cells
  entry of platinum into the cells: only very poor entry of platinum into the cells
